Experimental data as given in the NIST ThermoML archive (doi:10.1016/j.jct.2011.04.005).

How the values were obtained:
[1] = Maximal bubble pressure
[2] = xn = mol fraction of the nth substance listed; conditions: Maximal bubble pressure

CCCCCCCCCC [decane]
[1]
Conditions	surface tension liquid-gas [mN/m]
303.15 K	22.9
308.15 K	22.5
318.15 K	21.66

CCCCCCCCCC [decane] + CCO
[2]
Conditions	surface tension liquid-gas [mN/m]
303.15 K, x2 = 0.034	22.85
303.15 K, x2 = 0.101	22.6
303.15 K, x2 = 0.189	22.3
303.15 K, x2 = 0.29	22.1
303.15 K, x2 = 0.395	21.95
303.15 K, x2 = 0.492	21.85
303.15 K, x2 = 0.59	21.75
303.15 K, x2 = 0.696	21.65
303.15 K, x2 = 0.801	21.55
303.15 K, x2 = 0.907	21.45
303.15 K, x2 = 0.959	21.44
303.15 K, x2 = 0.982	21.43
308.15 K, x2 = 0.076	22.25
308.15 K, x2 = 0.173	22
308.15 K, x2 = 0.286	21.8
308.15 K, x2 = 0.373	21.68
308.15 K, x2 = 0.486	21.54
308.15 K, x2 = 0.593	21.46
308.15 K, x2 = 0.695	21.4
308.15 K, x2 = 0.8	21.29
308.15 K, x2 = 0.902	21.2
308.15 K, x2 = 0.954	21.17
318.15 K, x2 = 0.067	21.51
318.15 K, x2 = 0.16	21.25
318.15 K, x2 = 0.272	21
318.15 K, x2 = 0.366	20.83
318.15 K, x2 = 0.472	20.67
318.15 K, x2 = 0.585	20.54
318.15 K, x2 = 0.698	20.48
318.15 K, x2 = 0.803	20.37
318.15 K, x2 = 0.907	20.3
318.15 K, x2 = 0.958	20.36

CCCCCCCCCCCC [dodecane]
[1]
Conditions	surface tension liquid-gas [mN/m]
298.15 K	24.9
303.15 K	24.73

CCCCCCCCCCCC [dodecane] + CCO
surface tension liquid-gas [mN/m], [2]
Conditions	298.15 K	303.15 K
x2 = 0.055	24.87	24.6
x2 = 0.09	–	24.5
x2 = 0.097	24.72	–
x2 = 0.174	–	24.05
x2 = 0.184	24.33	–
x2 = 0.247	–	23.7
x2 = 0.264	23.95	–
x2 = 0.332	–	23.35
x2 = 0.366	23.47	–
x2 = 0.443	–	22.92
x2 = 0.472	23.1	–
x2 = 0.571	–	22.65
x2 = 0.589	22.97	–
x2 = 0.684	–	22.52
x2 = 0.692	22.92	–
x2 = 0.795	–	22.39
x2 = 0.799	22.78	–
x2 = 0.903	–	22.16
x2 = 0.905	22.57	–
x2 = 0.951	22.38	21.98
